# Assay results published in patent US8148371B2, “Adenine compound and use thereof” (Dainippon Sumitomo Pharma Co., Ltd., priority 2002, dated 2012).
# Key:
# leucocytes in BALF = assay: Amount of leucocytes in bronchoalveolar lavage fluid (BALF) on an asthma modeled mouse; type: in vivo, C57BL/6 mouse; conditions: 10 mg/kg nasally, BALF 18 hours after ovalbumin challenge
# Experimental: (§1) C57BL/6 mouse was immunized by dermally administering denatured ovalbumin by heating (40 mg). Fourteen days later after the first immunization, ovalbumin (100 μg) was nasally busted. Twenty one days later after the first immunization, the solution (1 ml/kg) prepared by suspending the test compound (10 mg/kg) in physiological saline was nasally administered (10 μl/10 g/body weight). After 2 hours ovalbumin (100 μg) was nasally challenged. After 18 hours, bronchoalveolar lavege fluid (BALF) was collected, and the total number of leucocytes in BALF and fractioned leukocyte in the cytospin sample were measured. By ELISA method, IL-4 and IL-5 in the supernatant were measured. The number of leucocytes (inhibition %) was shown in Table 5 and the production inhibition activity of IL-4 and IL-5 (inhibition % to control) was shown in Table 6.
# IL-5 = IL-5 in BALF supernatant on an asthma modeled mouse (ELISA); type: in vivo, C57BL/6 mouse; conditions: 10 mg/kg nasally
# Experimental: as §1
# IL-4 = IL-4 in BALF supernatant on an asthma modeled mouse (ELISA); type: in vivo, C57BL/6 mouse; conditions: 10 mg/kg nasally
# Experimental: as §1
# cells of rat spleen = assay: cells; type: cell-based, SD rat; conditions: 24 h, read-out: Minimum effective concentration (interferon inducing activity)
# plasma esterase = conditions: rat plasma, test compound 10 μM, 37° C., 15 minutes
# Experimental: The compound of the present invention is added to the serum solution, and the mixture is incubated at 37±0.5° C. for 5 minutes to 2 hours. By quantitatively analyzing at the definite interval the amount of the compound of the present invention remaining in the serum solution with HPLC (high performance liquid chromatography), etc., the constant of quenching velocity calculated and the half life is calculated.
# The serum herein means the supernatant fraction obtained by excluding hemocytes and blood coagulation factor from blood by centrifugation, etc. The serum diluted with buffer, etc. can be used.
# The metabolic stability of the test compound was presented by the residual amount (%) per the concentration of pre-metabolization.
# cells of mouse spleen = assay: cells; type: cell-based, C3H/HeJ mouse; conditions: Mus musculus, 24 h, read-out: Minimum effective concentration (interferon inducing activity)
# [1] = Metabolic stability on liver S9 of rat; conditions: rat liver S9, test compound 1 μM, 37° C.
# Experimental: The compound of the present invention is added to liver S9 solution, and the mixture is incubated at 37±0.5° C. for 5 minutes to 2 hours. By quantitatively analyzing at the definite interval the amount of the compound of the present invention remaining in the liver S9 solution with HPLC (high performance liquid chromatography), etc., the constant of quenching velocity is calculated and the half life is calculated.
# The reaction on river S9 of a rat was carried out on a 96-well plate by using a robot for screening by Tecan Company. S9 solution was prepared by adding to 10 ml of liver S9 of a rat, 20 ml of 250 mM Kpi (pH 7.4) and 20 ml of deionized water. Cofactor solution was prepared by dissolving NADPH (220 mg) in deionized water (40.5 ml) to give finally a 6 mM solution. IS (Internal Standard) solution was prepared by adding 300 μL of IS solution (1 mM DMSO solution) to 30 ml of acetonitrile solution (100 times dilution). The test compound (1 μM DMSO solution) was dissolved in an incubator at 37° C., 35 μL of it was poured into each well of a 96-well plate (24 samples/plate and then, plates (a sample plate, a 96 well-plate for dilution, deep well plates for reaction and recovering, a plate for extraction of the solid phase) and the test samples (S9 solution, Cofactor solution, IS (Internal Standard) solution, Stop solution, acetonitrile for elution) were set to the specified position in the booth of the robot. The reaction started (the concentration of the test compound was 1 μM) and the mixture was incubated at 37° C. under stirring. The solid phase was extracted and at the same time the internal standard for analysis was added. To the recovered sample (200 μL/well) was added 50 μL of acetonitrile per each well and to 2 plates of FALCON Deep well were poured 100 μL of the solution per well. By subjecting to the LC/MS analysis, the chromatogram of the test sample and the internal standard were described and the peak area was calculated. And then, the stability (residual rate after reaction) was calculated by the internal standard method.
Structure (SMILES),Acidophile (inhibition %) (leucocytes in BALF) [%],Netrophile (inhibition %) (leucocytes in BALF) [%],Number of total leukocyte (inhibition %) (leucocytes in BALF) [%],IL-5 production inhibition activity (inhibition % to control) (IL-5) [%],IL-4 production inhibition activity (inhibition % to control) (IL-4) [%],minimal effective concentration (cells of rat spleen) [µM],Residual rate (plasma esterase) [%],minimal effective concentration (cells of mouse spleen) [µM],Residual rate [1] [%]
CCC(=O)OCC(=O)[C@@]1(OC(=O)CC)[C@@H](C)C[C@H]2[C@@H]3CCC4=CC(=O)C=C[C@]4(C)[C@@]3(Cl)[C@@H](O)C[C@@]21C [Beclometasone dipropionate],89,90,92,100,97,–,–,–,–
"CCCCOc1nc(N)c2nc(O)n(Cc3ccc(C(=O)OC)o3)c2n1 [Example 15, 2-Butoxy-8-hydroxy-9-(5-methoxycarbonylfurfuryl)adenine]",101,−92,84,75,80,0.001,0,0.003,11
